Assay results reported in patent publication US11963959B2, “Inhibitors for coronavirus” (Southwest Research Institute, priority 2021, dated 2024).
Read-outs that look alike come from different tables or passages of the source.

What was measured:
[1] = tested on: SARS-CoV-2 (USA-WA1/2020); experiment: microbe, parasite or virus in culture; type: cell-based; conditions: for EC50 / EC90: Severe acute respiratory syndrome coronavirus 2, Vero C1008; for SI: selectivity index=CC50/EC50
[2] = in vitro; conditions: African green monkey
[3] = PK studies in mice, subcutaneous twice-a-day dosing, plasma and lung; type: in vivo; design: Tmax: unit not given here; conditions: for AUC / Cmax / half-life: mouse, sc
Experimental: In addition to the above, pharmokinetic (PK) studies have been completed on additional representative compounds of the pyyroloquinazolines noted herein. More specifically, pharmokinetic studies were conducted for Compound 8, 7-(2-(fluorobenzyl)-7H-pyrrolo[3,2-f]quinazoline-1,3-diamine having the following structure:
Reference is therefore made to FIG. 8 which provides the animal (mice) compound concentration versus time plots in blood plasma for dosing of Compound 8 at 10 mg/kg, subcutaneous, twice-a-day, at time points 0, 0.5, 1, 2, 4, 8, 12 hours post dose up to 36 hours. FIG. 9 provides the animal (mice) compound concentration versus time plots also for Compound 8 in the lung at 10 mg/kg, subcutaneous, twice-a-day, at time points 0, 0.5, 1, 2, 4, 8, 12 post dose up to 36 hours.
Reference is therefore made to FIG. 10 which provides the animal (mice) compound concentration versus time plots in blood plasma for dosing of Compound 9 at 25 mg/kg, subcutaneous, twice-a-day, at time points 0, 0.5, 1, 2, 4, 8, 12 hours post dose up to 36 hours. FIG. 11 provides the animal (mice) compound concentration versus time plots also for Compound 9 in the lung at 25 mg/kg, subcutaneous, twice-a-day, at time points 0, 0.5, 1, 2, 4, 8, 12 post dose up to 36 hours.
Reference is made to FIG. 12 which provides the animal (mice) compound concentration versus time plots in blood plasma for dosing of Compound 10 at 25 mg/kg, subcutaneous, twice-a-day, at time points 0, 0.5, 1, 2, 4, 8, 12 hours post dose up to 36 hours. FIG. 13 provides the animal (mice) compound concentration versus time plots also for Compound 10 in the lung at 25 mg/kg, subcutaneous, twice-a-day, at time points 0, 0.5, 1, 2, 4, 8, 12 hours post dose up to 36 hours.
Reference is made to FIG. 14 which provides the animal (mice) compound concentration versus time plots in blood plasma for dosing of Compound 11 at 25 mg/kg, subcutaneous, twice-a-day, at time points 0, 0.5, 1, 2, 4, 8, 12 hours post dose up to 36 hours. FIG. 15 provides the animal (mice) compound concentration versus time plots also for Compound 11 in the lung at 25 mg/kg, subcutaneous, twice-a-day, at time points 0, 0.5, 1, 2, 4, 8, 12 hours post does up to 36 hours.
Reference is made to FIG. 16 which provides the animal (mice) compound concentration versus time plots in blood plasma for dosing of Compound 12 at 10 mg/kg, subcutaneous, twice-a-day, at time points 0, 0.5, 1, 2, 4, 8, 12 hours post dose up to 36 hours. FIG. 17 provides the animal (mice) compound concentration versus time plots also for Compound 12 in the lung at 10 mg/kg, subcutaneous, twice-a-day, at time points 0, 0.5, 1, 2, 4, 8, 12 hours post dose up to 36 hours.

[4] = Table 1, SARS-CoV-2 strain, VeroE6, two biological replicates and 8 technical replicates, read-out: EC50
[5] = Table 1, SARS-CoV-2 strain, VeroE6, two biological replicates and 8 technical replicates, read-out: EC90
[6] = Table 2, SARS-CoV-2 strain, VeroE6, read-out: EC50
[7] = Table 2, SARS-CoV-2 strain, VeroE6, read-out: EC90
[8] = Table 7, SARS-CoV-2 strain, VeroE6, read-out: EC50
[9] = Table 7, SARS-CoV-2 strain, VeroE6, read-out: EC90
[10] = footnote of PK table, read-out: EC50
[11] = footnote of PK table, read-out: EC90
[12] = 10 mg/kg subcutaneous twice-a-day
[13] = lung, 10 mg/kg subcutaneous twice-a-day
[14] = plasma, 10 mg/kg subcutaneous twice-a-day
[15] = 25 mg/kg subcutaneous twice-a-day
[16] = lung, 25 mg/kg subcutaneous twice-a-day
[17] = plasma, 25 mg/kg subcutaneous twice-a-day

Compound: Nc1nc(N)c2c(ccc3c2ccn3Cc2ccccc2C(F)(F)F)n1 [Compound 1, 7-(2-(trifluoromethyl)benzyl)-7H-pyrrolo[3,2-f]quinazoline-1,3-diamine]
- EC50 [1]: 30 ± 10 nM
- EC90 [1]: 70 ± 30 nM
- SI ([1]; Table 1): 66.8
- CC50 [2]: 2000 ± 250 nM

Compound: Cc1ccccc1Cn1ccc2c3c(N)nc(N)nc3ccc21 [Compound 2, 7-(2-methylbenzyl)-7H-pyrrolo[3,2-f]quinazoline-1,3-diamine]
- EC50 [1, 4]: 20 ± 4 nM
- EC90 [1, 5]: 32 ± 50 nM
- SI ([1]; Table 1): 245
- CC50 [2]: 4940 ± 550 nM

Compound: Cc1cc2c3c(N)nc(N)nc3ccc2n1Cc1ccc(C#N)cc1 [Compound 3, 4-((1,3-diamino-8-methyl-7H-pyrrolo[3,2-f]quinazolin-7-yl)methyl)benzonitrile]
- EC50 [1, 4]: 13 ± 5 nM
- EC90 [1, 5]: 30 ± 20 nM
- SI ([1]; Table 1): 477.3
- CC50 [2]: 6410 ± 700 nM

Compound: C=CCn1ccc2c3c(N)nc(N)nc3ccc21 [Compound 4, 7-allyl-7H-pyrrolo[3,2-f]quinazoline-1,3-diamine]
- EC50 [1, 4]: 470 ± 210 nM
- EC90 [1, 5]: 850 ± 460 nM
- SI ([1]; Table 1): >63.8
- CC50 [2]: > 30000 nM

Compound: O=C(c1sc(-c2ccccc2)nc1-c1ccccc1)N1C[C@H]2CNC[C@H]2C1 [Compound 5, (2,4-diphenylthiazol-5-yl)((3aR,6aS)-hexahydropyrrolo[3,4-c]pyrrol-2(1H)-yl)methanone]
- EC50 [1, 6]: 8300 nM
- EC90 [1, 7]: 75000 nM
- SI ([1]; Table 2): 9.6
- CC50 [2]: 79700 nM

Compound: O=C(c1sc(-c2ccccc2)nc1-c1ccc(Cl)cc1)N1C[C@H]2CNC[C@H]2C1 [Compound 6, (4-(4-chlorophenyl)-2-phenylthiazol-5-yl)((3aR,6aS)-hexahydropyrrolo[3,4-c]pyrrol-2(1H)-yl)methanone]
- EC50 [1, 6]: 4200 nM
- EC90 [1, 7]: 13300 nM
- SI ([1]; Table 2): >4.0
- CC50 [2]: 17100 nM

Compound: O=C(c1sc(-c2ccc(Cl)cc2)nc1-c1ccccc1)N1C[C@H]2CNC[C@H]2C1 [Compound 7, (2-(4-chlorophenyl)-4-phenylthiazol-5-yl)((3aR,6aS)-hexahydropyrrolo[3,4-c]pyrrol-2(1H)-yl)methanone]
- EC50 [1, 6]: 4700 nM
- EC90 [1, 7]: 7960 nM
- SI ([1]; Table 2): 2.3
- CC50 [2]: 11000 nM

Compound: Nc1nc(N)c2c(ccc3c2ccn3Cc2ccccc2F)n1 [Compound 8]
- EC50 [1, 8]: 50 ± 31 nM
- EC90 [1, 9]: 160 ± 142 nM
- EC50 [1, 10]: 0.0246 µg/mL
- EC90 [1, 11]: 0.0799 µg/mL
- SI ([1]; Table 7): 98
- tolerability [3, 12]: relatively well-tolerated
- Time > EC90 [3, 13]: 98.3%
- Tmax [3, 13]: 98.3
- AUC [3, 13]: 13000 ng·h/mL
- Cmax [3, 13]: 4140 ng/mL
- half-life [3, 13]: 3.74 h
- AUC [3, 14]: 2140 ng·h/mL
- Cmax [3, 14]: 675 ng/mL
- half-life [3, 14]: 3.1 h
- Time > EC90 [3, 14]: 65%
- Tmax [3, 14]: 1.4
- CC50 [2]: 4890 ± 4700 nM

Compound: Nc1nc(N)c2c(ccc3c2ccn3Cc2cccnc2)n1 [Compound 9, 7-(pyridin-3-ylmethyl)-7H-pyrrolo[3,2-f]quinazoline-1,3-diamine]
- EC50 [1, 8]: 160 ± 61 nM
- EC90 [1, 9]: 360 ± 193 nM
- EC50 [1, 10]: 0.058 µg/mL
- EC90 [1, 11]: 0.142 µg/mL
- SI ([1]; Table 7): >187
- tolerability [3, 15]: relatively well-tolerated
- Time > EC90 [3, 16]: 73%
- Tmax [3, 16]: 1.9
- AUC [3, 16]: 12400 ng·h/mL
- Cmax [3, 16]: 3320 ng/mL
- half-life [3, 16]: 2.8 h
- AUC [3, 17]: 1190 ng·h/mL
- Cmax [3, 17]: 365 ng/mL
- half-life [3, 17]: 2.1 h
- Time > EC90 [3, 17]: 55%
- Tmax [3, 17]: 1.6
- CC50 [2]: > 30000 nM

Compound: Nc1nc(N)c2c(ccc3c2ccn3Cc2ccncc2)n1 [Compound 10, 7-(pyridin-4-ylmethyl)-7H-pyrrolo[3,2-f]quinazoline-1,3-diamine]
- EC50 [1, 8]: 80 ± 12 nM
- EC90 [1, 9]: 240 ± 110 nM
- EC50 [1, 10]: 0.0813 µg/mL
- EC90 [1, 11]: 0.221 µg/mL
- SI ([1]; Table 7): >375
- tolerability [3, 15]: relatively well-tolerated
- Time > EC90 [3, 16]: 63%
- Tmax [3, 16]: 1.2
- AUC [3, 16]: 7820 ng·h/mL
- Cmax [3, 16]: 2910 ng/mL
- half-life [3, 16]: 2.7 h
- AUC [3, 17]: 1600 ng·h/mL
- Cmax [3, 17]: 678 ng/mL
- half-life [3, 17]: 2.1 h
- Time > EC90 [3, 17]: 44%
- Tmax [3, 17]: 1.2
- CC50 [2]: > 30000 nM

Compound: Nc1nc(N)c2c(ccc3c2ccn3Cc2ccccn2)n1 [Compound 11, 7-(pyridin-2-ylmethyl)-7H-pyrrolo[3,2-f]quinazoline-1,3-diamine]
- EC50 [1, 8]: 120 ± 50 nM
- EC90 [1, 9]: 360 ± 230 nM
- EC50 [1, 10]: 0.0435 µg/mL
- EC90 [1, 11]: 0.142 µg/mL
- SI ([1]; Table 7): 128
- tolerability [3, 15]: relatively well-tolerated
- Time > EC90 [3, 16]: 85%
- Tmax [3, 16]: 1.28
- AUC [3, 16]: 14600 ng·h/mL
- Cmax [3, 16]: 3270 ng/mL
- half-life [3, 16]: 3.3 h
- AUC [3, 17]: 1170 ng·h/mL
- Cmax [3, 17]: 348 ng/mL
- half-life [3, 17]: 2.6 h
- Time > EC90 [3, 17]: 45%
- Tmax [3, 17]: 1.6
- CC50 [2]: 15500 ± 10600 nM

Compound: Nc1nc(N)c2c(ccc3c2ccn3CC2CCCCC2)n1 [Compound 12, 7-(cyclohexylmethyl)-7H-pyrrolo[3,2-f]quinazoline-1,3-diamine]
- EC50 [1, 8]: 120 ± 87 nM
- EC90 [1, 9]: 320 ± 320 nM
- EC50 [1, 10]: 0.0177 µg/mL
- EC90 [1, 11]: 0.0325 µg/mL
- SI ([1]; Table 7): 41
- tolerability [3, 12]: relatively well-tolerated
- Time > EC90 [3, 13]: 100%
- Tmax [3, 13]: 1.4
- AUC [3, 13]: 34100 ng·h/mL
- Cmax [3, 13]: 10100 ng/mL
- half-life [3, 13]: 3.1 h
- AUC [3, 14]: 968 ng·h/mL
- Cmax [3, 14]: 348 ng/mL
- half-life [3, 14]: 4.2 h
- Time > EC90 [3, 14]: 64%
- Tmax [3, 14]: 1.4
- CC50 [2]: 4910 ± 200 nM
